In patent US11397182B2, “Methods for prognosing and preventing metastatic liver disease” (CORNELL UNIVERSITY, priority 2014, dated 2022):

Tests used:
TGF-beta type I receptor = molecular target: T1, TGF-beta type I receptor (Mus musculus, UniProt Q64729); test: Systemic TGFβ receptor inhibition during PAN02 exosome education, liver immunofluorescence; format: in vivo; settings: A83-01 i.p. during the three-week course of PAN02 exosome education
T1 construct: from tissue; host or cells: living C57Bl/6 mice; liver analysed by immunofluorescence
T1 sequence (Q64729 30-503): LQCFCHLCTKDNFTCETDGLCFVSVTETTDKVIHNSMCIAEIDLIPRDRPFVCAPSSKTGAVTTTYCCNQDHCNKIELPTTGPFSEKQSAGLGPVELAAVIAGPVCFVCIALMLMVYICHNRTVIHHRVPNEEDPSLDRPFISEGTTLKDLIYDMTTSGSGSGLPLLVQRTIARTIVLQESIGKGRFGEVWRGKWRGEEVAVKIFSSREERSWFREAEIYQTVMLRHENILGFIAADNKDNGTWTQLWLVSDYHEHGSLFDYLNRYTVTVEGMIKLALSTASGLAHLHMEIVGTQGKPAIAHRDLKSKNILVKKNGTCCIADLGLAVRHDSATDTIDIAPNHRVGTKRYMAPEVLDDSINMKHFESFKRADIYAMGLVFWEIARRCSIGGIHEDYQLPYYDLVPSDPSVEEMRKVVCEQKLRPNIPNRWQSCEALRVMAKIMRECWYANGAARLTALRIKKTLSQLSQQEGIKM
Experimental: Five micrograms of total exosomal protein was injected into the retro-orbital venous sinus in a total volume of 100 μl PBS. For education experiments, mice received 5 μg of exosomes every other day, 3 times a week. For exosome-tracking experiments, purified exosomes were fluorescently labelled using PKH67 membrane dye (Sigma). Labelled exosomes were washed in 20 ml of PBS, collected by ultracentrifugation, and resuspended in PBS. In experiments involving evaluation of exosome incorporation, labelled exosomes were injected 24 h before tissue collection and analysis for exosome^+ cells was conducted by flow cytometry or immunofluorescence. For exosome-tracking experiments, 5 μg of non-tumour exosomes from normal pancreas were used as controls. Unlabeled exosomes were used as controls of signal specificity. For education experiments, retro-orbital injection of PBS or normal pancreata exosomes was used in control groups.
For systemic TGFβ receptor inhibition, mice were treated with intraperitoneal injections of A83-01 (Santa Cruz). Mice were administered 10 μg of A83-01 (diluted in 100 μl of dimethylsulphoxide) per gram of mouse weight for a total of 9 doses, every other day, for the three weeks of PAN02 exosome education.
For histological analysis, tissues were dissected and fixed in a mix of 2% PFA and 20% sucrose solution overnight, and then embedded in Tissue-tek O.C.T. (Electron Microscopy Sciences). Blocks were frozen in a dry ice and ethanol bath. […] GFP and mCherry′ cells were detected by their intrinsic signal. Fluorescent images were obtained using a Nikon confocal microscope (Eclipse TE2000U) and analyzed using Nikon software (EZ-C1 3.6). FN and αSMA expression were quantified using ImageJ Software (NIH) by determining the ratio between the areas of FN and DAPI staining, expressed in arbitrary units (a.u.).

fibronectin = test: Tamoxifen-driven conditional FN knockout during PAN02 exosome education, liver immunofluorescence; format: in vivo, mouse; settings: tamoxifen treatment of Rosa-CreER+; Fn fl/fl mice during PAN02 exosome education
From the text: To generate inducible FN knockout mice, we crossed B6; 129-Gt(ROSA)26SOR^tm1(cre/ERT2)Tyj/J mice expressing tamoxifen-sensitive Cre under the Gt(Rosa)26 or promoter (Jackson Laboratories, stock 008463) with mice homozygous for a floxed allele of fibronectin (Fn^fl/fl, generously provided by R. Fässler, Max Planck Institute of Biochemistry) (Sakai et al., “Plasma Fibronectin Supports Neuronal Survival and Reduces Brain Injury Following Transient Focal Cerebral Ischemia but is Not Essential for Skin-Wound Healing and Hemostasis,” Nat. Med. 7:324-330 (2001), which is hereby incorporated by reference in its entirety). […] For verification of Fn deletion, liver FN expression was evaluated by immunofluorescence.
For histological analysis, tissues were dissected and fixed in a mix of 2% PFA and 20% sucrose solution overnight, and then embedded in Tissue-tek O.C.T. (Electron Microscopy Sciences). […] GFP and mCherry′ cells were detected by their intrinsic signal. Fluorescent images were obtained using a Nikon confocal microscope (Eclipse TE2000U) and analyzed using Nikon software (EZ-C1 3.6). FN and αSMA expression were quantified using ImageJ Software (NIH) by determining the ratio between the areas of FN and DAPI staining, expressed in arbitrary units (a.u.).

Row | Structure (SMILES) | F4/80+ macrophage migration to the liver (TGF-beta type I receptor) | FN deposition in the liver (TGF-beta type I receptor) | frequency of αSMA+ hStCs in the liver (TGF-beta type I receptor) | FN deposition in the liver (fibronectin) | αSMA expression in the liver (fibronectin)
1 | Cc1cccc(-c2nn(C(=S)Nc3ccccc3)cc2-c2ccnc3ccccc23)n1 [A83-01, 3-(6-Methyl-2-pyridinyl)-N-phenyl-4-(4-quinolinyl)-1H-pyrazole-1-carbothioamide] | reduced | reduced | reduced |  | 
2 | CC/C(=C(\c1ccccc1)c1ccc(OCCN(C)C)cc1)c1ccccc1 [tamoxifen] |  |  |  | reduced to control | not affected
